Laboratory results published in paper PMC12113356, “Novel Anti-MRSA Peptide from Mangrove-Derived Virgibacillus chiguensis FN33 Supported by Genomics and Molecular Dynamics” (Marine Drugs, 2025).
≈ marks a conversion by molar mass, not a printed value. Read-outs that look alike come from different tables or passages of the source.

What was measured:
MRSA strain 2468 [1] = experiment: Compatibility with surfactants (activity retention by agar well diffusion); format: physicochemical, Staphylococcus aureus; conditions: surfactant 1% w/v alone, no AMP, agar well diffusion, % of untreated FN33 AMP sample, mean ± SD, n = 3
Method: The AMP solution was prepared in sterile purified water and adjusted to a final concentration of 32 µg/mL. To determine thermal stability, the AMP was exposed to temperatures of 30, 40, 60, 80, and 100 °C, as well as to autoclaving at 121 °C and 15 psi for 15 and 30 min. The susceptibility of the AMP to enzymatic degradation was examined by treating it with proteinase K, trypsin, and α-chymotrypsin (each at 1 mg/mL, Sigma-Aldrich, Warren, MI, USA), representing different proteolytic mechanisms. The AMP’s compatibility with surfactants was assessed by incubating it with 1% SDS, 1% CTAB, and 1% Triton X-100 (AppliChem GmbH, Darmstadt, Germany). Additionally, the effect of pH variations on AMP integrity was tested by adjusting the solution to pH 1, 4, 8, 10, and 14. The pH was neutralized to the original pH after incubation before conducting antibacterial activity tests. […] Stability data were expressed as residual activity percentages relative to the untreated sample (mean ± SD), and statistical significance was evaluated using two-way ANOVA and Tukey’s post hoc test, with a p-value < 0.05 considered significant.

S. aureus TISTR 517 [2] = experiment: Broth microdilution MIC/MBC (CLSI); format: cell-based, Staphylococcus aureus
Method: (§1) The broth microdilution method was performed following the guidelines of the Clinical and Laboratory Standards Institute (CLSI). Test strains including S. aureus TISTR 517 and MRSA strains 142, 1096, and 2468 were cultured on MH agar at 37 °C for 18 h. A single colony from each strain was suspended in 0.85% NaCl until it reached a turbidity of 0.1 OD at 625 nm (1 × 10^8 CFU/mL). The bacterial cells were then diluted to 5 × 10^6 CFU/mL using cation-adjusted Mueller–Hinton broth (CAMHB). Ten microliters of the cell suspension were added to each well of a 96-well plate to make the total volume in each well 100 µL. The AMP was added to achieve final concentrations ranging from 0.125 to 64 µg/mL. Vancomycin and cefoxitin were used as positive controls, while antibiotic-free samples were used as negative controls. The plate was incubated at 37 °C for 24 h. Each experiment was performed in triplicate. The MIC was determined as the lowest concentration that inhibited visible bacterial growth. For the MBC, 100 µL from each dilution was spread on MH agar and incubated at 37 °C for 24 h. The MBC was the lowest concentration at which no bacterial colonies appeared on the agar plates.

MRSA strain 1096 [3] = experiment: Broth microdilution MIC/MBC (CLSI); format: cell-based; conditions: Staphylococcus aureus
Method: as §1

MRSA strain 2468 [4] = experiment: Broth microdilution MIC/MBC (CLSI); format: cell-based; conditions: Staphylococcus aureus
Method: as §1

MRSA strain 142 [5] = experiment: Broth microdilution MIC/MBC (CLSI); format: cell-based; conditions: Staphylococcus aureus
Method: as §1

P. aeruginosa TISTR 357 = experiment: Agar well diffusion method; format: cell-based; conditions: 9 mm wells, MH agar, 37 °C 18 h, antibiotics 30 µg, mean ± SD, n = 3
Method: (§2) The optical density of the starter cultures was adjusted to 0.1 OD at 625 nm using 0.85% sterile NaCl solution before transferring 1 mL of the culture into 49 mL of fresh broth. The inoculum was then incubated at 30 °C with shaking at 150 rpm for 3 days. The CFS was obtained by centrifugation at 10,000× g at 4 °C for 15 min and filtered through a 0.2 µm sterile cellulose acetate syringe filter (Sigma-Aldrich, Warren, MI, USA). The antibacterial activity of the isolates was tested against S. aureus TISTR 517, E. coli TISTR 887, K. pneumoniae TISTR 1383, and P. aeruginosa TISTR 357, obtained from the Thailand Institute of Scientific and Technological Research (TISTR), Thailand, and three MRSA strains (strains 142, 1096, and 2468), provided by the medical technology laboratory of the School of Allied Health Sciences, Walailak University, Thailand. The pathogenic bacteria were incubated on MH agar at 37 °C for 18 h to obtain fresh cultures. Colonies of the test pathogens were scraped and suspended in 0.85% sterile NaCl solution. The test pathogen suspensions were adjusted to a turbidity equivalent to 0.1 OD at 625 nm before being spread onto MH agar plates. […] Wells with a diameter of 9 mm were made in the agar using a sterile cork borer. The collected CFS from the bacterial culture was transferred into the wells, and the plates were incubated at 37 °C for 18 h. Cefoxitin (30 µg) and vancomycin (30 µg) (Sigma-Aldrich Co., St. Louis, MO, USA) were used as positive controls. The experiment was repeated in triplicate, and the mean ± SD of the inhibition zone diameters was recorded.

E. coli TISTR 887 = experiment: Agar well diffusion method; format: cell-based; conditions: 9 mm wells, MH agar, 37 °C 18 h, antibiotics 30 µg, mean ± SD, n = 3
Method: as §2

K. pneumoniae TISTR 1383 = experiment: Agar well diffusion method; format: cell-based; conditions: 9 mm wells, MH agar, 37 °C 18 h, antibiotics 30 µg, mean ± SD, n = 3
Method: as §2

S. aureus TISTR 517 [6] = experiment: Scanning electron microscopy of treated cells; format: cell-based, Staphylococcus aureus; conditions: 1× MIC, 16 h / 18 h (figure legend), 30,000× magnification
Source text: (§3) SEM was used to examine morphological alterations in the bacterial cells. […] This appearance reflected their natural cellular structure.
(§4) Figure 5 SEM images captured at 30,000× magnification. […] The non-treatment condition served as a negative control.

MRSA strain 2468 [7] = experiment: Scanning electron microscopy of treated cells; format: cell-based, Staphylococcus aureus; conditions: 1× MIC, 16 h / 18 h (figure legend), 30,000× magnification
Source text: as §3, §4

S. aureus TISTR 517 [8] = experiment: Agar well diffusion method; format: cell-based, Staphylococcus aureus; conditions: 9 mm wells, MH agar, 37 °C 18 h, antibiotics 30 µg, mean ± SD, n = 3
Method: as §2

MRSA strain 1096 [9] = experiment: Agar well diffusion method; format: cell-based, Staphylococcus aureus; conditions: 9 mm wells, MH agar, 37 °C 18 h, antibiotics 30 µg, mean ± SD, n = 3
Method: as §2

MRSA strain 2468 [10] = experiment: Agar well diffusion method; format: cell-based, Staphylococcus aureus; conditions: 9 mm wells, MH agar, 37 °C 18 h, antibiotics 30 µg, mean ± SD, n = 3
Method: as §2

MRSA strain 142 [11] = experiment: Agar well diffusion method; format: cell-based, Staphylococcus aureus; conditions: 9 mm wells, MH agar, 37 °C 18 h, antibiotics 30 µg, mean ± SD, n = 3
Method: as §2

MRSA strains = experiment: Broth microdilution MIC/MBC (CLSI), for the MRSA strains together; format: cell-based; conditions: Staphylococcus aureus
Method: as §1

[12] = DPPH radical-scavenging assay; conditions: 0.1 mM DPPH, 25 °C, 30 min in darkness, absorbance 517 nm; mean ± SD, n = 3
Method: A 200 μL sample or ascorbic acid (Gammaco Ltd., Bangkok, Thailand) was added to 2 mL of 0.1 mM DPPH solution (Merck Ltd., Bangkok, Thailand) and incubated at 25 °C in darkness for 30 min. The DPPH color change from purple to pale yellow was observed, and the absorbance at 517 nm was measured using a UV–visible spectrophotometer.

[13] = 100 µL of each dilution spread on MH agar, 37 °C 24 h, triplicate
[14] = Staphylococcus aureus, TISTR517, 24 h
[15] = broth microdilution, CAMHB, 37 °C 24 h, triplicate
[16] = 100 µL of each dilution spread on MH agar, 37 °C 24 h, triplicate, read-out: MBC
[17] = broth microdilution, CAMHB, 37 °C 24 h, triplicate, read-out: MIC

Molecule	Antibacterial activity against MRSA Strain 2468 of surfactant alone, on the scale of FN33 AMP activity retention (%) (MRSA strain 2468 [1]; 1 h)	Antibacterial activity against MRSA Strain 2468 of surfactant alone, on the scale of FN33 AMP activity retention (%) (MRSA strain 2468 [1]; 6 h)	Antibacterial activity against MRSA Strain 2468 of surfactant alone, on the scale of FN33 AMP activity retention (%) (MRSA strain 2468 [1]; 12 h)	MBC (S. aureus TISTR 517 [2]; [13]) [µg/mL]	MIC (S. aureus TISTR 517 [2]; [15]) [µg/mL]	Zone of Inhibition (P. aeruginosa TISTR 357) [mm]	Zone of Inhibition (E. coli TISTR 887) [mm]	Zone of Inhibition (K. pneumoniae TISTR 1383) [mm]	Zone of Inhibition (S. aureus TISTR 517 [8]) [mm]	Zone of Inhibition (MRSA strain 1096 [9]) [mm]	Zone of Inhibition (MRSA strain 2468 [10]) [mm]	Zone of Inhibition (MRSA strain 142 [11]) [mm]	also measured
CCCCCCCCCCCCOS(=O)(=O)[O-].[Na+] [SDS, sodium dodecyl sulfate, reference compound]	110.10 ± 0.84	109.30 ± 0.56	108.93 ± 0.57										
CCCCCCCCCCCCCCCC[N+](C)(C)C [CTAB, cetyltrimethylammonium bromide, reference compound]	98.62 ± 0.69	98.89 ± 1.10	98.42 ± 0.72										
Triton X-100 [reference compound]	0.00 ± 0.00	0.00 ± 0.00	0.00 ± 0.00										
CN[C@H](CC(C)C)C(=O)N[C@H]1C(=O)N[C@@H](CC(N)=O)C(=O)N[C@H]2C(=O)N[C@H]3C(=O)N[C@H](C(=O)N[C@H](C(=O)O)c4cc(O)cc(O)c4-c4cc3ccc4O)[C@H](O)c3ccc(c(Cl)c3)Oc3cc2cc(c3O[C@@H]2O[C@H](CO)[C@@H](O)[C@H](O)[C@H]2O[C@H]2C[C@](C)(N)[C@H](O)[C@H](C)O2)Oc2ccc(cc2Cl)[C@H]1O [Vancomycin]				2 (≈ 1.38 µM)	2 (≈ 1.38 µM)	0.00 ± 0.00	0.00 ± 0.00	0.00 ± 0.00	23.37 ± 1.27	24.38 ± 0.51	24.64 ± 1.02	24.13 ± 1.27	MBC (S. aureus TISTR 517 [2]; [14]): 2 µg/mL (≈ 1.38 µM); MIC (S. aureus TISTR 517 [2]; [14]): 2 µg/mL (≈ 1.38 µM); MBC (MRSA strain 1096 [3]; 24 h): 2 µg/mL (≈ 1.38 µM); MIC (MRSA strain 1096 [3]; 24 h): 2 µg/mL (≈ 1.38 µM); MBC (MRSA strain 2468 [4]; 24 h): 2 µg/mL (≈ 1.38 µM); MIC (MRSA strain 2468 [4]; 24 h): 2 µg/mL (≈ 1.38 µM); MBC (MRSA strain 142 [5]; 24 h): 2 µg/mL (≈ 1.38 µM); MIC (MRSA strain 142 [5]; 24 h): 2 µg/mL (≈ 1.38 µM); morphological changes under SEM (S. aureus TISTR 517 [6]): complete cell lysis; morphological changes under SEM (MRSA strain 2468 [7]): complete cell lysis; MBC (MRSA strains; MRSA): 2 µg/mL (≈ 1.38 µM); MIC (MRSA strains; MRSA): 2 µg/mL (≈ 1.38 µM)
O=C1O[C@H]([C@@H](O)CO)C(O)=C1O [Ascorbic acid, ascorbic acid, reference compound]													IC50 (DPPH radical scavenging) [12]: 6.78 ± 1.58 µg/mL (≈ 38.5 µM)
CO[C@@]1(NC(=O)Cc2cccs2)C(=O)N2C(C(=O)O)=C(COC(N)=O)CS[C@@H]21 [Cefoxitin]				2 (≈ 4.68 µM)	2 (≈ 4.68 µM)	0.00 ± 0.00	35.12 ± 1.04	19.67 ± 0.88	35.87 ± 0.46	0.00 ± 0.00	0.00 ± 0.00	0.00 ± 0.00	MBC (S. aureus TISTR 517 [2]; Staphylococcus aureus, TISTR517, 100 µL of each dilution spread on MH agar, 37 °C 24 h, triplicate, read-out: MBC): 2 µg/mL (≈ 4.68 µM); MIC (S. aureus TISTR 517 [2]; Staphylococcus aureus, TISTR517, broth microdilution, CAMHB, 37 °C 24 h, triplicate, read-out: MIC): 2 µg/mL (≈ 4.68 µM); MBC (MRSA strain 1096 [3]; [16]): > 64 µg/mL; MIC (MRSA strain 1096 [3]; [17]): > 64 µg/mL; MBC (MRSA strain 2468 [4]; [16]): > 64 µg/mL; MIC (MRSA strain 2468 [4]; [17]): > 64 µg/mL; MBC (MRSA strain 142 [5]; [16]): > 64 µg/mL; MIC (MRSA strain 142 [5]; [17]): > 64 µg/mL; MBC (MRSA strains; text statement for the MRSA strains (142, 1096, 2468) together, read-out: MBC): > 64 µg/mL; MIC (MRSA strains; text statement for the MRSA strains (142, 1096, 2468) together, read-out: MIC): > 64 µg/mL
